Results on 89 compounds are retold here after a melting point compilation (Tetko et al.; mined from patent text by program, amines drawn as free bases though some values may be those of a salt).

Structures are written as SMILES.

Compound `O=C(NCc1c[nH]c(-c2cc3nc(C(=O)O)c(=O)[nH]c3cc2[N+](=O)[O-])n1)Nc1ccccc1F` came in with a melting point of 300 °C. Next, `COC(=O)c1cc(OCc2ccc3ccccc3n2)no1`: 133 to 134 °C.

`COc1cc2c(cc1C(F)(F)F)N(C(=O)Nc1ccc3c(ccn3-c3ccncc3)c1)CC2` came in with a melting point of 206 to 211 °C. Next, `COc1cc(C(C)=O)ccc1OCCN1CCC(c2noc3cc(F)ccc23)CC1`: 132 to 134 °C; `CN(C)C(=O)Nc1ccc(SCCc2ccccc2)c(Cl)c1`: 133 to 134 °C; `Cc1c(CNCC2CCOCC2)n(C)c2c(C)c(NC(=O)c3ccc(OC[C@@H]4CCCO4)cc3)ccc12`: 173 to 174 °C.

Turning to `O=C(Cc1ccc(Oc2ccccc2)cc1)NCCC1=CCCCC1`, the melting point lay in the range of 74 to 75 °C. As for `COC(=O)[C@H](Cc1cc(Cl)c(OCCCNC(=O)OC(C)(C)C)c(Cl)c1)NC(=O)C(F)(F)F`, the melting point lay within 90 to 91.5 °C. Compound `CN1C2CCC(N3C(=O)c4ccccc4C3=O)C1CC2` (centres undefined) had a melting point of 145 to 147 °C. `O=C(O)c1cccc(CN2CCC(N3C(=O)Nc4ccccc4C3c3ccccc3)CC2)c1` (centres undefined): the melting point was more than 250 °C. With `Nc1ccc(C(=O)N2CCOCC2)c(N)c1`, the melting point is 114 to 115 °C.

In turn, `O=C(NCCN1CCCCC1)Nc1ccc(-c2cnc(COCc3cc4ccccc4o3)o2)cc1` had a melting point of 102 to 104 °C. Compound `Cc1ccccc1CN1CCc2ccc(C(=O)CCC(=O)N3CCC(c4ccc(Cl)cc4)CC3)cc2CC1` displayed a melting point of 108 to 109 °C. Next, `COc1ccc(C(=O)C(=O)NC(C)C)s1`: 72 to 73 °C. In turn, `NNc1nc(N)c2ncn(COCCO)c2n1` registered a melting point of 220 to 222 °C. Then `CC(=O)NCC1CN(c2ccc(-c3cccc(CN)c3)c(F)c2)C(=O)O1` (centres undefined), with 170 °C; and `O=C(Nc1ccc(-c2ccc(C(=O)O)cc2)cc1)OCC1c2ccccc2-c2ccccc21`, with 245 to 248 °C; and `CC(C)N(N)C(=O)c1ccc(-c2ccc(Cl)cc2)o1`, with 142 to 144 °C. Regarding `COc1ccc(-c2csc(Nc3ccc4ccccc4n3)n2)cc1OC`, the melting point was in the range of 257 to 259 °C.

The compound `COc1ccc(-n2cnc3c(-c4ccc(C(F)(F)F)cc4F)ncnc32)cc1` yielded a melting point of 181 to 183 °C. With `CS(=O)(=O)Nc1cc(F)cc(C(O)CN)c1` (centres undefined), the melting point is 167 to 169 °C. Turning to `CCCc1nc2c(N)nc3cc(Br)ccc3c2n1CC1CCN(C(=O)OC(C)(C)C)CC1`, the melting point lay within 134 to 137 °C.

As for `CCCC(=O)C(=CNc1ccc(OCC)c(C)n1)C(=O)OCC`, the melting point lay in the range of 117 to 120 °C. In turn, `C[C@H](NC(=O)C[C@@H](CCO)c1ccc(F)cc1)c1ccccc1` had a melting point of 170 °C.

The compound `NC(=O)c1cc(N)ccc1SSc1ccc(N)cc1C(N)=O` had a melting point of 188 to 190 °C.

The compound `Cc1ccc(-c2cccc(C(N)=NO)c2)cc1` returned a melting point of 134 to 136 °C. In turn, `COc1ccc2ccccc2c1CC(NC(C)=O)C(=O)O` (centres undefined) showed a melting point of 201 °C. Then `COc1ccc2[nH]cc(CCCNCC3COc4ccccc4O3)c2c1` (centres undefined), with 135 to 136 °C. Turning to `C[C@@H](c1ccc(-c2ccc(C#N)cn2)cc1)N1CC[C@](CC(C)(C)O)(c2ccccc2)OC1=O`, the melting point was in the range of 160 to 162 °C. For the compound `CC1(O)CC(=O)OC(c2ccc(-c3ccccc3)cc2)C1Br` (centres undefined), the melting point lay within 173 to 176 °C.

On to `CCCCc1c(C(=O)O)[nH]c2c(Br)cccc2c1=O`, for which the melting point was 220 °C.

In turn, `CN(C)c1ccc2nc(N)c(C#N)c(NCc3ccco3)c2c1` yielded a melting point of 235 °C. `FC(F)(F)c1cccc2c1c(N1CCOCC1)nc1c(-c3nc(C4CC4)no3)ncn12` yielded a melting point of 197 to 199 °C. Regarding `CCCCOC(=O)CN(C(=O)C(F)(F)F)C(N1CCOCC1)P(=O)(O)OSc1ccc(Cl)cc1` (centres undefined), the melting point lay in the range of 79.5 to 81 °C. Take `C=C(Cc1c(Cl)cccc1Cl)C(=O)O`: the melting point was 132 °C. Next, `COc1ccccc1NC(=O)Nc1ccc(N2CCN(C(=O)Nc3ccc(OCCO)cc3Cl)CC2)c(Cl)c1`: 173 to 175 °C. In turn, `CCc1nc2c(N)nc3cc(CCC(=O)N(C)C)ccc3c2n1CC(C)(C)O` yielded a melting point of 234 to 237 °C. Turning to `CCCCCCCCCCCCCCCC(=O)NO`, the melting point lay in the range of 100 to 101 °C.

`CCCC1(C(=O)N(C)Cc2ccccc2)c2ccccc2-c2ccccc21`: the melting point was 73 to 74 °C.

The compound `O=S1N=C(NCCCN(Cc2cccs2)c2ccccn2)C(NCc2ccncc2)=N1` (centres undefined) displayed a melting point of 129 to 130 °C. For `COc1ccc(-c2nc3cc(Cl)ccc3o2)cc1OC`, the melting point lay within 142 to 145 °C.

With `COc1ccc(S(=O)(=O)N2CCc3cccc(-c4ccc(O)cc4)c32)cc1`, the melting point fell in the range of 179 to 180 °C.

Turning to `CCC1C(C)=NN=C(c2ccc(OC)c(OC)c2)c2cc(Cl)ccc21` (centres undefined), the melting point fell in the range of 185 to 187 °C. `CC1CCN(c2ccc(Nc3ncc4c(n3)SCC(=O)N4)cc2)CC1` registered a melting point of 278 to 280 °C. The compound `COC(=O)/C=C/c1cnc2ccccc2c1` returned a melting point of 118 to 120 °C.

On to `N#Cc1ccccc1SC1SCC(O)C(O)C1O` (centres undefined), for which the melting point lay within 118 to 119 °C.

Compound `CC(=O)n1nc(-c2c(C)cc(C)c([N+](=O)[O-])c2C)n2nc(C(C)(C)C)cc12` returned a melting point of 169 to 171 °C. Compound `COC(=O)C(OC)Oc1ccc(C2CCN(c3ccncc3)CC2)cc1` (centres undefined) registered a melting point of 127 to 129 °C.

The compound `COc1cc(OC)c(/C=C2/C(=O)NC(=O)/C2=C/c2ccccc2)c(OC)c1` had a melting point of 246 to 248 °C.

Take `CC1(C)COc2cc(Br)ccc2C(O)(c2ccccn2)C1` (centres undefined): the melting point was 110 °C.

On to `CN(C)S(=O)(=O)c1ccc([N+](=O)[O-])cc1C(F)(F)F`, for which the melting point lay within 95 to 97 °C.

Take `CNC(=O)Cc1cccc2c(=O)cc(C3=CCCCC3)oc12`: the melting point lay in the range of 213 to 214 °C. The compound `c1ccc(COCCNc2ccc(Nc3ncnc4cc(-c5ccccc5)sc34)cc2)cc1` displayed a melting point of 201 to 203 °C. Compound `O=C1NC(=O)C(CC#Cc2ccc(Cl)cc2)(S(=O)(=O)c2cc(Cl)c(Cl)s2)S1` (centres undefined) registered a melting point of 160 °C. Compound `CC(C)N1CCC2(CC1)CSC1=C(O2)c2ccccc2C(=O)C1=O` had a melting point of 197 to 198 °C. Then `O=S(=O)(c1ccccc1)N1CCC(C(O)(c2ccc(F)c(F)c2)c2ccc(F)c(F)c2)CC1`, with 152 to 154 °C; and `CN1CCCC(OC(=O)Nc2ccc(F)cc2)C1` (centres undefined), with 97 to 98 °C; and `CONC(=O)CC1=C(C)/C(=C/c2ccc(S(C)=O)cc2)c2ccc(F)cc21` (centres undefined), with 177 to 179 °C. Then `Cc1ccc(S(=O)(=O)N2[C@H](CCCNS(C)(=O)=O)CC[C@@H]2c2ccc(F)cc2)cc1` (racemic), with 123 °C; and `Cc1cc(N)c(C)c(C(=O)O)c1`, with 146 °C. For `O=C(c1cccs1)c1cnn2c(-c3cccc(-c4nnn[nH]4)c3)ccnc12`, the melting point was determined as 290 °C. The compound `CCCC(=O)c1cnc2ccc(OC)cc2c1Cl` yielded a melting point of 73 to 75 °C.

On to `CCCCCCCCCCCCCCCCSCc1ccc(N(C)C)cc1`, for which the melting point was in the range of 41 to 43 °C.

In the case of `O=C(CN1CCOCC1)NC(c1ccccc1)C1(c2ccc(Cl)cc2)CCC1` (centres undefined), the melting point was 95 to 97 °C.

`Clc1cc(Cl)c2[nH]c(-c3ccccc3)cc2c1` yielded a melting point of 136 to 138 °C. In turn, `CC(C)(C#N)ON1C(C)(C)CNC(=O)CC1(C)C` showed a melting point of 130 to 134 °C. `CC(CO[N+](=O)[O-])NC(=O)[C@@H]1CSC(=O)N1` (some centres undefined): the melting point was in the range of 112 to 114 °C. The compound `Cc1cccc(C)c1NC(=O)Nc1sc2cc3c(cc2c1-c1ccccc1Cl)CCC3` registered a melting point of 236 to 237 °C. `Cc1oc(C=Cc2ccc(Cl)cc2)nc1CO` showed a melting point of 129 to 130 °C. Consider `CCc1cnc2c(NC(=O)c3c(Cl)cccc3Cl)cccc2c1/C=C/C(=O)O`, for which the melting point was 235 to 236 °C. Next, `Nc1ccc(NC(=O)C=C2CC(C(=O)OCc3ccccc3)Nc3cc(Cl)cc(Cl)c32)cc1` (racemic): 80 °C; `COc1ccc(CCN2C=CC=C3C2=Nc2ccccc2OS3(=O)=O)cc1O`: 158 to 160 °C; `CCCCc1nc(C(C)=O)c(C#N)n1Cc1ccc(-c2ccccc2C(=O)O)cc1`: more than 55 °C. Then `CC1(C(=O)N2C[C@@H](O)C[C@H]2C(=O)NC2(C#N)CC2)CC1`, with 160 °C. For `CCOC(=O)c1sc(-c2ccc(C#N)cc2)nc1CO`, the melting point is more than 250 °C.

`CC(=O)N(C)c1cccc(Sc2ccc([N+](=O)[O-])cc2)c1` displayed a melting point of 66 to 68 °C. Consider `CCCc1ccc2c(c1)C=Cc1sc(C)nc1C2c1cn(C)c(=O)[nH]c1=S` (centres undefined), for which the melting point came to 235 °C. `O=C(NCO)c1cccc(Oc2ccccc2)c1` came in with a melting point of 112 to 113 °C. In turn, `O=C(C#Cc1ccccc1)Nc1nc2ccccc2s1` yielded a melting point of 174 to 176 °C. As to `CC(C)(C)c1ccc(N2C(=O)CCC2=O)c([N+](=O)[O-])c1`, the melting point was 135 to 138 °C.

In the case of `O=C(Nc1cc2ncc(CN3CCCC3)cc2cc1F)c1ccc(-c2ccc(Cl)cc2)cc1F`, the melting point fell in the range of 217 to 219 °C. In turn, `CS(=O)c1ccc(-c2nn(Cc3ccccc3)c(=O)cc2-c2ccc(F)cc2)cc1` (centres undefined) registered a melting point of 198 °C. In turn, `CCCS(=O)(=O)c1nc[nH]n1` registered a melting point of 116 to 117 °C. `COC(=O)c1cc(-c2ncnc(C)c2C#N)c(F)cc1Cl` showed a melting point of 142 to 144 °C.

In turn, `CC(C)c1nn(-c2ccc(C#N)nn2)cc1CCCO` came in with a melting point of 140 to 141 °C. Compound `CN(CCCCC(=O)OC[C@@H]1CC(c2ccc(-c3ccc(N4C[C@H](Cn5ccnn5)OC4=O)cc3F)cn2)=NO1)C(=O)OC(C)(C)C` showed a melting point of 121 °C. In turn, `O=C1CCC2=C1C(c1ccc(F)c(F)c1)C1=C(CCS1)N2` (centres undefined) came in with a melting point of more than 260 °C. `CCOC(=O)c1nc(C(=O)Oc2ccccc2)sc1N` returned a melting point of 168 °C. Next, `CC1(C)OC(c2ccc(S(N)(=O)=O)cc2)=C(c2cc3ccccc3s2)C1=O`: 120 to 121 °C.
